Measurements reported in PMC8980959, “Ceramide kinase regulates acute wound healing by suppressing 5-oxo-ETE biosynthesis and signaling via its receptor OXER1” (Journal of Lipid Research, 2022).

How the values were obtained:
[1] = target: T1, ceramide kinase (CERK), mouse (Mus musculus, UniProt Q8K4Q7); experiment: C1P product levels by UPLC ESI-MS/MS in mouse dermal fibroblasts, […]; assay type: cell-based
T1 sequence (Q8K4Q7 1-531): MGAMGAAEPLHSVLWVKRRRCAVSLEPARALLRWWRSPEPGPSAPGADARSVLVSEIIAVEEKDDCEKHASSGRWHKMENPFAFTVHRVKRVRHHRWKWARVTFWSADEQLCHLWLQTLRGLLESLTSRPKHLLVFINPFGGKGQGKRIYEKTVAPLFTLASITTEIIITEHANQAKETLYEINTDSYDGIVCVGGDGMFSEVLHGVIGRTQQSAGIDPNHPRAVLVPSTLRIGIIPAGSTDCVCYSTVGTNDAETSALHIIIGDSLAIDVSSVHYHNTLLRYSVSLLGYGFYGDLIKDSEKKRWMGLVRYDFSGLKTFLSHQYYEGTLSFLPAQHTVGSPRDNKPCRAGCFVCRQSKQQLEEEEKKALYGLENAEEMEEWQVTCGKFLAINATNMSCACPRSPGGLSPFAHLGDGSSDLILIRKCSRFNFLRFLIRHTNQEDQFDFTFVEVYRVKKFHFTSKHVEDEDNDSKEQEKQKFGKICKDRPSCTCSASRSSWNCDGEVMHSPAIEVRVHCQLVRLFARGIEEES

[2] = target: T2, ceramide kinase (CERK), human (Homo sapiens, UniProt Q8TCT0); experiment: in vitro CERK activity assay; assay type: biochemical
T2 sequence (Q8TCT0 1-537): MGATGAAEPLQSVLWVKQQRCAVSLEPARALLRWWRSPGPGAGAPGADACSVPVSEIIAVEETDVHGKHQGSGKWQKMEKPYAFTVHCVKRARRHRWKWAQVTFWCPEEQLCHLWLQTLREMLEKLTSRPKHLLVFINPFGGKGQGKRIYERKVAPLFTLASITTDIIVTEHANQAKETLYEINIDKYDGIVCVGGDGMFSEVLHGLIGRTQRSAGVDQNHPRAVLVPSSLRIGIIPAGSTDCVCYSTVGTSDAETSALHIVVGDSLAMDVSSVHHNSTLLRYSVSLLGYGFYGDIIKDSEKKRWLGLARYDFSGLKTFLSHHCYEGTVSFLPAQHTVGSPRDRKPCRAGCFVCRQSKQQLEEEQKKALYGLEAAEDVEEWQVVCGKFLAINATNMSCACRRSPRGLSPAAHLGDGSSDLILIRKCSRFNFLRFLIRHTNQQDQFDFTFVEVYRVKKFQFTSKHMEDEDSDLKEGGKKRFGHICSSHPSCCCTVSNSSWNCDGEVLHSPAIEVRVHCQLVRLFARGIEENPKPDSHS

[3] = target: T1, ceramide kinase (CERK), mouse; experiment: in vitro CERK activity assay; assay type: biochemical

Row | IC50 [2] | IC50 [3] | Compound | C1P product levels by UPLC ESI-MS/MS in mouse dermal fibroblasts, 100 nM [1]
1 |  |  | O=C(Nc1nc2ccc(NC(=O)C34CC5CC(CC(C5)C3)C4)cc2s1)c1ccccc1 [NVP-231, N-[2-(Benzoylamino)-6-benzothiazolyl]tricyclo[3.3.1.13,7]decane-1-carboxamide] | significantly reduced by SYR382141 in pDFs to an equivalent or greater extent as NVP-231
2 | 5 nM | 9 nM | SYR382141 | 
